Here are results for 124 compounds from PubChem BioAssay AID1188 (EPA DSSTox, 2008).

Calls of active or inactive are those of the source.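 How the source made its calls: active means a concentration killing half the fathead minnows in the acute test was determined; inconclusive means some fish died but not half at top dose; inactive means no fish died even at top dose.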

In this data set the test system is Fathead minnow (Pimephales promelas) acute toxicity, lethality. Nature of the data set: DSSTox (EPAFHM) EPA Fathead Minnow Acute Toxicity. From the text: The EPA Fathead Minnow Acute Toxicity database was generated by the U.S. EPA Mid-Continental Ecology Division (MED) for the purpose of developing an expert system to predict acute toxicity from chemical structure based on mode of action considerations. […] A second valuable aspect of this database, from a QSAR modeling perspective, is the inclusion of general mode-of-action (MOA) classifications of acute toxicity response for individual chemicals derived from study results. MOA assignments are biologically based classifications, allowing definition of chemical similarity based upon biological activity instead of organic chemistry functional class as most commonly employed in QSAR study. MOA classifications should strengthen the scientific basis for construction of individual QSARs. However, it is cautioned that the broad MOA categorizations should not be construed to represent a single molecular mechanism; for example, CNS seizure agents and respiratory inhibitors are known to act through a variety of receptors. The EPA Fathead Minnow database and results have been used by EPA MED to build components of the ASTER prediction system, which incorporates MOA-based QSARs for the prediction of aquatic toxicity of environmental and industrial chemicals. Briefly, MOA classifications for individual chemicals, derived from experiments and provided in the EPA Fathead Minnow database, were used to derive substructural rules for assigning a new chemical to an MOA category based solely on chemical structure. Once a new chemical is assigned to an MOA category on this basis, the logP-based QSAR for that MOA category is applied.
The DSSTox EPAFHM database (available from the DSSTox Source URL) includes information pertaining to organic chemical class assignments (ChemClass_FHM), acute toxicity in fathead minnow (LC50_mg), dose-response assessments (LC50_Ratio, ExcessToxicityIndex), behavioral assessments (FishBehaviorTest), joint toxicity MOA evaluations of mixtures (MOA_MixtureTest), and additional MOA evaluation of fish acute toxicity syndrome (FishAcuteToxSyndrome) in rainbow trout. All of these indicators, to the extent available, were considered in the determination of MOA and, additionally, were used to determine a level of confidence in the MOA assignment for each chemical (MOA_Confidence). […] Activity Score is mapping of LOG10 (1/LC50_mmol) activity values spanning activity range [MIN, MAX] onto Integer 1-100 Activity range, where 100 is highest potency and 1 is lowest. If Activity Outcome is "active": Activity Score = 100 * INTEGER[(log10(1/ LC50_mmol) - MIN)/([…])].
On to `COc1cc(C=O)cc(Br)c1O`, for which the Potency was 258 µM. With `c1ccc(-c2ccncc2)cc1`, the Potency is 104 µM. Consider `CCOC(=O)C(Cl)C(=O)OCC`, for which the Potency is 4.88 µM. Still for that read-out and setting: then `Nc1ccc(O)c([N+](=O)[O-])c1`, with 235 µM; and `O=C(Oc1ccccc1)c1ccccc1O`, with 5.51 µM; and `Cc1ccc(S(=O)(=O)n2ccnc2)cc1`, with 188 µM. Same read-out and setting: then `COc1c(O)c(Br)cc(C=O)c1[N+](=O)[O-]`, with 266 µM. Same read-out and setting: then `C1CN2CCN1CC2`, with 15400 µM; and `CC(C)O`, with 144000 µM.

On to `CCc1ccccn1`, for which the Potency is 3860 µM. Same read-out and setting: then `CC(C)(C)SC(C)(C)C`, with 199 µM; and `O[C@@H]1CCCC[C@H]1c1ccccc1`, with 252 µM. The same measure, in the same setting: then `O=[N+]([O-])c1ncccc1O`, with 1190 µM; and `C=CC(=O)OCC(C)O` (centres undefined), with 26 µM. On the same count and under the same terms, as for `O=Cc1c(F)cccc1Cl`, the figure is 59.3 µM; as for `COc1ccccc1C(N)=O`, 794 µM; as for `Oc1ccc(Cl)cc1O`, 10.9 µM. Turning to `CC(C)=CC=C(C)C`, the Potency is 34.3 µM. On the same count and under the same terms, as for `NC(=O)c1ccccc1O`, the figure is 736 µM.

Consider `CCC(=O)c1ccc(N)cc1`, for which the Potency is 979 µM. Still for that read-out and setting: as for `O=Cc1ccccc1`, the figure is 93 µM; as for `CC(C)(O)C(Cl)(Cl)Cl`, 362 µM; as for `COC(=O)c1ccc(C#N)cc1`, 290 µM.

As for `CC=O`, the Potency is 767 µM.

On to `C=CC(=O)OC1CCCCC1`, for which the Potency is 9.6 µM. The same measure, in the same setting: as for `Cc1ccccc1`, the figure is 368 µM. Same read-out and setting: as for `CCCC(C)C=O` (centres undefined), the figure is 188 µM. Same read-out and setting: as for `CCCCCc1ccccc1`, the figure is 11.5 µM; as for `CCCCSCCCC`, 24.5 µM; as for `CCCCCCCCCCCCCN`, 0.328 µM.

Turning to `CCC(C)(C)c1ccc(O)cc1`, the Potency was 15.8 µM.

For `CC(C)(C)CN`, the Potency is 5450 µM. On the same count and under the same terms, then `C#CC(O)(c1ccccc1)c1ccccc1`, with 53.3 µM; and `CCN(CC)c1ccc(C=O)cc1`, with 135 µM; and `Cc1cccc(Cl)n1`, with 1820 µM. As to `Oc1cc(Cl)c(Cl)c(Cl)c1Cl`, the Potency is 1.77 µM. On the same count and under the same terms, then `CC(=O)C(C)(C)C`, with 869 µM.

Take `CC(=O)c1ccc(Cl)cc1Cl`: the Potency was 68.9 µM. Still for that read-out and setting: as for `C=C[C@@]1(C)CC[C@H]2C(=CC[C@@H]3[C@]2(C)CCC[C@@]3(C)C(=O)O)C1`, the figure is 2.88 µM; as for `CCCCO`, 23300 µM; as for `Oc1cccc2ccccc12`, 32.1 µM.

As for `O=Cc1cc(Br)ccc1O`, the Potency was 6.46 µM.

On to `CCCCOC(=O)CCC(=O)OCCCC`, for which the Potency was 19.4 µM. Still for that read-out and setting: as for `N#Cc1ccccn1`, the figure is 6970 µM; as for `Brc1ccsc1`, 38 µM.

As to `C=CC(O)CCC` (centres undefined), the Potency is 304 µM. On the same count and under the same terms, as for `OCCN1CCOCC1`, the figure is 20700 µM; as for `C#CC(C)(O)C(C)C` (centres undefined), 1830 µM.

As for `O=C(/C=C/C=C/c1ccc2c(c1)OCO2)N1CCCCC1`, the Potency was 27.5 µM. As to `c1cc(CCc2ccncc2)ccn1`, the Potency was 820 µM. Still for that read-out and setting: as for `O=[N+]([O-])c1cc([N+](=O)[O-])c(Cl)cc1Cl`, the figure is 0.192 µM; as for `S=c1[nH]c2cc(Cl)ccc2s1`, 15.9 µM. As for `CCc1ccc(O)cc1`, the Potency was 85.1 µM. The same measure, in the same setting: as for `ClCCCCCl`, the figure is 406 µM.

Take `CCOC(=O)c1ccccc1C(=O)OCC`: the Potency was 143 µM. Turning to `CCCO`, the Potency is 75700 µM. `CCc1ccc(N)cc1`: the Potency is 602 µM. In the case of `C1CCC(C2CCCCC2)CC1`, the outcome was “inactive; moa not determined either due to lack of toxicity at saturation or late test res”.

Turning to `CC1(C)[C@@H]2CC[C@@]1(C)C(=O)[C@H]2Br`, the Potency is 296 µM. Still for that read-out and setting: then `c1ccc(CN2CCNCC2)cc1`, with 269 µM; and `COc1ccc(C(C)=O)c(OC)c1OC`, with 947 µM; and `O=Cc1ccccc1[N+](=O)[O-]`, with 95.3 µM.

As for `Cc1cc(C)c(C#N)c(=O)[nH]1`, the Potency was 1060 µM. On the same count and under the same terms, then `N#CCCCCC#N`, with 17900 µM; and `CCCCC(C)=O`, with 4270 µM. In the case of `C#CCCO`, the Potency is 515 µM. As to `OCCOCCO`, the Potency is 709000 µM. Still for that read-out and setting: as for `CCOP(=S)(OCC)Oc1cc(C)nc(C(C)C)n1`, the figure is 30.7 µM; as for `Oc1cccnc1Br`, 2700 µM.

Consider `CCN1C(=O)CC(=O)N(CC)C1=S`, for which the Potency is 22500 µM.

As for `Clc1ccccc1`, the Potency was 150 µM. On to `CC(C)(C)c1ccc(C(N)=O)cc1`, for which the Potency was 180 µM. For `O=Cc1cc(Br)cc(Br)c1O`, the Potency is 3.04 µM. On the same count and under the same terms, then `CN(C)c1ccc(C=O)cc1`, with 306 µM. On the same count and under the same terms, as for `Brc1ccccc1Br`, the figure is 17.2 µM. On the same count and under the same terms, then `O=S(=O)([O-])c1ccc[n+](Cc2ccccc2)c1`, with 9670 µM. Take `Oc1ccccc1-c1ccccc1`: the Potency is 36.1 µM. Same read-out and setting: as for `CCOCC`, the figure is 34500 µM; as for `CCCCCCCCCCCC(C)=O`, 1.81 µM; as for `COC(=O)c1cc(Cl)ccc1Cl`, 68.3 µM.

With `CCCCC=O`, the Potency is 150 µM. For the compound `O=CN(c1ccccc1)c1ccccc1`, the Potency is 154 µM. On the same count and under the same terms, as for `Nc1ccc(F)cc1`, the figure is 152 µM; as for `O=C(Nc1ccccc1)c1ccccc1O`, 18.5 µM. On the same count and under the same terms, then `O=C(Oc1ccccc1)c1ccccc1C(=O)Oc1ccccc1`, with 0.251 µM; and `Cc1cccc([N+](=O)[O-])c1`, with 187 µM; and `C#CC(C)(O)c1ccccc1` (centres undefined), with 773 µM. `CN(C)c1ccc(P(=O)(c2ccc(N(C)C)cc2)c2ccc(N(C)C)cc2)cc1`: the outcome was “inactive; moa not determined either due to lack of toxicity at saturation or late test res”. `CNC(=O)O/N=C(\SC)C(=O)N(C)C`: the Potency is 30.9 µM. Take `O=[N+]([O-])c1ccccc1`: the Potency is 967 µM. Turning to `O=P(Oc1c(Cl)cccc1Cl)(Oc1c(Cl)cccc1Cl)Oc1c(Cl)cccc1Cl`, the outcome is “inactive; moa not determined either due to lack of toxicity at saturation or late test res”.

Turning to `C/C=C/C=C/C`, the Potency was 243 µM. Still for that read-out and setting: then `CCCCOc1ccccc1`, with 38 µM; and `ClC(Cl)C(Cl)Cl`, with 121 µM. The same measure, in the same setting: then `Cc1ccc(O)c(C)c1`, with 136 µM; and `CC1(C)[C@H]2CC[C@]1(C)C(=O)C2`, with 112 µM. Same read-out and setting: as for `CC(C)C1=CC2=CC[C@@H]3[C@](C)(CCC[C@@]3(C)C(=O)O)[C@H]2CC1`, the figure is 7.87 µM; as for `Cc1ccc(C)c(O)c1C`, 60.2 µM. On to `CCC(C)N` (centres undefined), for which the Potency is 3760 µM.

With `Cc1ccc([N+](=O)[O-])c(OP(=O)(Oc2cc(C)ccc2[N+](=O)[O-])Oc2cc(C)ccc2[N+](=O)[O-])c1`, the outcome was “inactive; moa not determined either due to lack of toxicity at saturation or late test res”. On to `CCCCCC`, for which the Potency was 29 µM. Same read-out and setting: as for `CCCBr`, the figure is 547 µM.

In the case of `CCCCCOCCCCC`, the Potency was 19.8 µM.

For `O=[N+]([O-])c1c(Cl)cc(Cl)c([N+](=O)[O-])c1Cl`, the Potency was 0.818 µM.

On to `C=CCC(O)C=C` (centres undefined), for which the Potency was 388 µM. Take `CC(C)(C)CC(C)(C)N`: the Potency was 190 µM. With `C#CCC(C)O` (centres undefined), the Potency was 417 µM. In the case of `CCOP(=S)(OCC)SCSc1ccc(Cl)cc1`, the Potency is 0.7 µM. Same read-out and setting: as for `CC(C)[C@H](C(=O)OC(C#N)c1cccc(Oc2ccccc2)c1)c1ccc(OC(F)F)cc1` (some centres undefined), the figure is 0.000421 µM.

For `Fc1ccc(Oc2ccc(F)cc2)cc1`, the Potency is 5.48 µM. The same measure, in the same setting: then `CC(=O)c1cccn1C`, with 1280 µM; and `O=Cc1ccc(Oc2ccccc2)cc1`, with 23.2 µM; and `CCCCCCCCCCN`, with 6.55 µM. Still for that read-out and setting: as for `C=C(C)C(=O)OC(C)C`, the figure is 296 µM; as for `CN1CCNCC1`, 23000 µM; as for `CCC#N`, 27600 µM. The same measure, in the same setting: then `CC(=O)CC(C)C`, with 5210 µM. As for `CCCCCCCCCN`, the Potency is 15 µM. Regarding `C=CCc1ccccc1O`, the Potency was 112 µM. For `CC(C)(C)SSC(C)(C)C`, the Potency is 7.68 µM.

Regarding `Cc1ccccc1F`, the Potency was 176 µM. Same read-out and setting: as for `C1C2CC3CC1CC(C2)C3`, the figure is 2.06 µM. The same measure, in the same setting: as for `C=CC=O`, the figure is 0.303 µM. The same measure, in the same setting: then `CC#CCO`, with 144 µM.
